System: 633275-114-R-J1-PDC complex spheroids, viability
Assay: Anticancer human tumor 633275-114-R-J1-PDC patient-derived endometrial adenocarcinoma cell line growth inhibition [GQUAD]
Details: for IC50: curve of first compound; for viability, T/C: stronger effect = lower value
Outline: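 Multi-cell-type spheroids of tumor cells with HUVEC and mesenchymal stem cells, treated with drug combinations. Concentrations descend in half-log steps from near clinical Cmax, or from 10 microM where Cmax is unknown; viability read-out.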

[1] = second compound 0.0316 µM, first compound 0.0316 µM
[2] = second compound 0.0316 µM, first compound 0.1 µM
[3] = second compound 0.0316 µM, first compound 0.316 µM
[4] = second compound 0.0316 µM, first compound 1 µM
[5] = second compound 0.0316 µM, first compound 3.16 µM
[6] = second compound 0.0316 µM, first compound 10 µM
[7] = second compound 0.1 µM, first compound 0.0316 µM
[8] = second compound 0.1 µM, first compound 0.1 µM
[9] = second compound 0.1 µM, first compound 0.316 µM
[10] = second compound 0.1 µM, first compound 1 µM
[11] = second compound 0.1 µM, first compound 3.16 µM
[12] = second compound 0.1 µM, first compound 10 µM
[13] = second compound 0.316 µM, first compound 0.0316 µM
[14] = second compound 0.316 µM, first compound 0.1 µM
[15] = second compound 0.316 µM, first compound 0.316 µM
[16] = second compound 0.316 µM, first compound 1 µM
[17] = second compound 0.316 µM, first compound 3.16 µM
[18] = second compound 0.316 µM, first compound 10 µM
[19] = second compound 1 µM, first compound 0.0316 µM
[20] = second compound 1 µM, first compound 0.1 µM
[21] = second compound 1 µM, first compound 0.316 µM
[22] = second compound 1 µM, first compound 1 µM
[23] = second compound 1 µM, first compound 3.16 µM
[24] = second compound 1 µM, first compound 10 µM
[25] = second compound 3.16 µM, first compound 0.0316 µM
[26] = second compound 3.16 µM, first compound 0.1 µM
[27] = second compound 3.16 µM, first compound 0.316 µM
[28] = second compound 3.16 µM, first compound 1 µM
[29] = second compound 3.16 µM, first compound 3.16 µM
[30] = second compound 3.16 µM, first compound 10 µM
[31] = second compound 10 µM, first compound 0.0316 µM
[32] = second compound 10 µM, first compound 0.1 µM
[33] = second compound 10 µM, first compound 0.316 µM
[34] = second compound 10 µM, first compound 1 µM
[35] = second compound 10 µM, first compound 3.16 µM
[36] = second compound 10 µM, first compound 10 µM
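Note: spheroids exposed to the agents for seven days.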
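Throughout, for viability, T/C: percent of DMSO vehicle control viability which is 100%.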

## COc1cc(C2c3cc4c(cc3C(OC3OC5COC(C)OC5C(O)C3O)C3COC(=O)C23)OCO4)cc(OC)c1O (stereo unspecified) + CN(C)c1ccc(Nc2c3ccc(NC(=O)CCN4CCCC4)cc3nc3cc(NC(=O)CCN4CCCC4)ccc23)cc1
Second compound 0.0316 µM
  IC50: 295 nM
Second compound 0.1 µM
  IC50: 284 nM
Second compound 0.316 µM
  IC50: 296 nM
Second compound 1 µM
  IC50: 334 nM
Second compound 3.16 µM
  IC50: 171 nM
Second compound 10 µM
  IC50: < 31.6 nM
[1]
  viability, T/C: 81.6%
[2]
  viability, T/C: 64.5%
[3]
  viability, T/C: 47.3%
[4]
  viability, T/C: 40.9%
[5]
  viability, T/C: 33.7%
[6]
  viability, T/C: 30.3%
[7]
  viability, T/C: 80.2%
[8]
  viability, T/C: 64.8%
[9]
  viability, T/C: 44.7%
[10]
  viability, T/C: 41.4%
[11]
  viability, T/C: 32.6%
[12]
  viability, T/C: 26.9%
[13]
  viability, T/C: 84.3%
[14]
  viability, T/C: 69.7%
[15]
  viability, T/C: 48.4%
[16]
  viability, T/C: 36.8%
[17]
  viability, T/C: 38.4%
[18]
  viability, T/C: 29.8%
[19]
  viability, T/C: 75.4%
[20]
  viability, T/C: 59.5%
[21]
  viability, T/C: 52.1%
[22]
  viability, T/C: 38.7%
[23]
  viability, T/C: 36.7%
[24]
  viability, T/C: 26.7%
[25]
  viability, T/C: 71.7%
[26]
  viability, T/C: 53.7%
[27]
  viability, T/C: 43.6%
[28]
  viability, T/C: 36.4%
[29]
  viability, T/C: 37.5%
[30]
  viability, T/C: 26%
[31]
  viability, T/C: 25.5%
[32]
  viability, T/C: 19.9%
[33]
  viability, T/C: 18.5%
[34]
  viability, T/C: 17.5%
[35]
  viability, T/C: 16.3%
[36]
  viability, T/C: 10.7%

## Cc1[nH]c2ccccc2c1CCNCc1ccc(/C=C/C(=O)NO)cc1 + CN(C)c1ccc(Nc2c3ccc(NC(=O)CCN4CCCC4)cc3nc3cc(NC(=O)CCN4CCCC4)ccc23)cc1
Second compound 0.0316 µM
  IC50: 82.6 nM
Second compound 0.1 µM
  IC50: 55.1 nM
Second compound 0.316 µM
  IC50: 55.2 nM
Second compound 1 µM
  IC50: 48 nM
Second compound 3.16 µM
  IC50: 24.8 nM
Second compound 10 µM
  IC50: < 0.999 nM
Second compound 0.0316 µM, first compound 0.000999 µM
  viability, T/C: 97.4%
Second compound 0.0316 µM, first compound 0.00316 µM
  viability, T/C: 94.7%
Second compound 0.0316 µM, first compound 0.00999 µM
  viability, T/C: 84.9%
[1]
  viability, T/C: 59.6%
Second compound 0.0316 µM, first compound 0.0999 µM
  viability, T/C: 51.3%
[3]
  viability, T/C: 21.6%
Second compound 0.1 µM, first compound 0.000999 µM
  viability, T/C: 94.2%
Second compound 0.1 µM, first compound 0.00316 µM
  viability, T/C: 102%
Second compound 0.1 µM, first compound 0.00999 µM
  viability, T/C: 80.5%
[7]
  viability, T/C: 57.1%
Second compound 0.1 µM, first compound 0.0999 µM
  viability, T/C: 43%
[9]
  viability, T/C: 22%
Second compound 0.316 µM, first compound 0.000999 µM
  viability, T/C: 96.8%
Second compound 0.316 µM, first compound 0.00316 µM
  viability, T/C: 97.4%
Second compound 0.316 µM, first compound 0.00999 µM
  viability, T/C: 70.5%
[13]
  viability, T/C: 60.5%
Second compound 0.316 µM, first compound 0.0999 µM
  viability, T/C: 41.2%
[15]
  viability, T/C: 19.4%
Second compound 1 µM, first compound 0.000999 µM
  viability, T/C: 88%
Second compound 1 µM, first compound 0.00316 µM
  viability, T/C: 83.4%
Second compound 1 µM, first compound 0.00999 µM
  viability, T/C: 67.3%
[19]
  viability, T/C: 58.1%
Second compound 1 µM, first compound 0.0999 µM
  viability, T/C: 38.4%
[21]
  viability, T/C: 18.3%
Second compound 3.16 µM, first compound 0.000999 µM
  viability, T/C: 82.4%
Second compound 3.16 µM, first compound 0.00316 µM
  viability, T/C: 80.2%
Second compound 3.16 µM, first compound 0.00999 µM
  viability, T/C: 61.2%
[25]
  viability, T/C: 48.6%
Second compound 3.16 µM, first compound 0.0999 µM
  viability, T/C: 26.3%
[27]
  viability, T/C: 15.4%
Second compound 10 µM, first compound 0.000999 µM
  viability, T/C: 34.1%
Second compound 10 µM, first compound 0.00316 µM
  viability, T/C: 29.8%
Second compound 10 µM, first compound 0.00999 µM
  viability, T/C: 21%
[31]
  viability, T/C: 23.4%
Second compound 10 µM, first compound 0.0999 µM
  viability, T/C: 13.6%
[33]
  viability, T/C: 4.56%

## Nc1ccn(C2OC(CO)C(O)C2(F)F)c(=O)n1 (stereo unspecified) + CN(C)c1ccc(Nc2c3ccc(NC(=O)CCN4CCCC4)cc3nc3cc(NC(=O)CCN4CCCC4)ccc23)cc1
Second compound 0.0316 µM
  IC50: < 31.6 nM
Second compound 0.1 µM
  IC50: < 31.6 nM
Second compound 0.316 µM
  IC50: < 31.6 nM
Second compound 1 µM
  IC50: < 31.6 nM
Second compound 3.16 µM
  IC50: < 31.6 nM
Second compound 10 µM
  IC50: < 31.6 nM
[1]
  viability, T/C: 27.4%
[2]
  viability, T/C: 20.1%
[3]
  viability, T/C: 23.8%
[4]
  viability, T/C: 23.6%
[5]
  viability, T/C: 20.7%
[6]
  viability, T/C: 20.5%
[7]
  viability, T/C: 27.1%
[8]
  viability, T/C: 20.7%
[9]
  viability, T/C: 24%
[10]
  viability, T/C: 22.4%
[11]
  viability, T/C: 21.5%
[12]
  viability, T/C: 19.3%
[13]
  viability, T/C: 29.6%
[14]
  viability, T/C: 21%
[15]
  viability, T/C: 25.6%
[16]
  viability, T/C: 22.9%
[17]
  viability, T/C: 19.7%
[18]
  viability, T/C: 17.7%
[19]
  viability, T/C: 27.7%
[20]
  viability, T/C: 20.1%
[21]
  viability, T/C: 22%
[22]
  viability, T/C: 21.1%
[23]
  viability, T/C: 22.4%
[24]
  viability, T/C: 19.6%
[25]
  viability, T/C: 24.6%
[26]
  viability, T/C: 20.6%
[27]
  viability, T/C: 19.3%
[28]
  viability, T/C: 18.6%
[29]
  viability, T/C: 20.6%
[30]
  viability, T/C: 18.6%
[31]
  viability, T/C: 12.9%
[32]
  viability, T/C: 11.6%
[33]
  viability, T/C: 11.7%
[34]
  viability, T/C: 11.7%
[35]
  viability, T/C: 11%
[36]
  viability, T/C: 9%

Reference: PubChem BioAssay AID2060505 (Molecular Pharmacology Branch, DTP, NCI, 2025)
